Measurements reported in patent US20250289787A1, “HERBICIDAL 2-OXO-NICOTINIC ACID DERIVATIVES” (SYNGENTA CROP PROTECTION AG, priority 2022, published 2025).

Tests used:
Type in all cases: in vivo
Parameters in all cases: key: 5=81-100%; 4=61-80%; 3=41-60%; 2=21-40%; 1=1-20%; 0=no damage to the plant; -=not tested
[1] = tested on: Echinochloa crus-galli (ECHCG); test: Post-emergence test, herbicidal damage; settings: sprayed after 8 days cultivation, 1000 g/ha unless otherwise stated, evaluated after 13 days, five-point scale
Summary of the method: (§1)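 Pots in a glasshouse (24 °C/16 °C day/night, 14 h light, 65% humidity) were sprayed at 1000 g/ha in acetone/water (50:50) with 0.5% Tween 20. Percentage damage was scored after 13 days on a 0–5 scale (5 = 81–100%, 1 = 1–20%, 0 = no damage).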

[2] = tested on: Ipomoea hederacea (IPOHE); test: Post-emergence test, herbicidal damage; settings: sprayed after 8 days cultivation, 1000 g/ha unless otherwise stated, evaluated after 13 days, five-point scale
Summary of the method: as §1

Setaria faberi (SETFA) [3] = test: Post-emergence test, herbicidal damage; settings: sprayed after 8 days cultivation, 1000 g/ha unless otherwise stated, evaluated after 13 days, five-point scale
Summary of the method: as §1

[4] = tested on: Amaranthus retoflexus (AMARE); test: Post-emergence test, herbicidal damage; settings: sprayed after 8 days cultivation, 1000 g/ha unless otherwise stated, evaluated after 13 days, five-point scale
Summary of the method: as §1

Zea mays (ZEAMX) [5] = test: Post-emergence test, herbicidal damage; settings: sprayed after 8 days cultivation, 1000 g/ha unless otherwise stated, evaluated after 13 days, five-point scale
Summary of the method: as §1

[6] = tested on: Amaranthus palmeri (AMAPA); test: Post-emergence test, herbicidal damage; settings: sprayed after 8 days cultivation, 1000 g/ha unless otherwise stated, evaluated after 13 days, five-point scale
Summary of the method: as §1

Zea mays (ZEAMX) [7] = test: Pre-emergence test, herbicidal damage; settings: 1000 g/ha unless otherwise stated, evaluated after 13 days, five-point scale
[8] = tested on: Ipomoea hederacea (IPOHE); test: Pre-emergence test, herbicidal damage; settings: 1000 g/ha unless otherwise stated, evaluated after 13 days, five-point scale
[9] = tested on: Amaranthus palmeri (AMAPA); test: Pre-emergence test, herbicidal damage; settings: 1000 g/ha unless otherwise stated, evaluated after 13 days, five-point scale
[10] = tested on: Echinochloa crus-galli (ECHCG); test: Pre-emergence test, herbicidal damage; settings: 1000 g/ha unless otherwise stated, evaluated after 13 days, five-point scale
Setaria faberi (SETFA) [11] = test: Pre-emergence test, herbicidal damage; settings: 1000 g/ha unless otherwise stated, evaluated after 13 days, five-point scale
[12] = tested on: Amaranthus retoflexus (AMARE); test: Pre-emergence test, herbicidal damage; settings: 1000 g/ha unless otherwise stated, evaluated after 13 days, five-point scale

CCc1c(-c2ccc(Cl)c(Cl)c2)c(C(=O)O)c(=O)n(-c2ccc(Cl)cc2F)c1C [Compound 35, 1-(4-chloro-2-fluoro-phenyl)-4-(3,4-dichlorophenyl)-5-ethyl-6-methyl-2-oxo-pyridine-3-carboxylic acid]
percentage damage caused to the plant, ECHCG [1]: 0 | percentage damage caused to the plant, IPOHE [2]: 1 (1=1-20%) | percentage damage caused to the plant, SEFTA (Setaria faberi (SETFA) [3]): 0 | percentage damage caused to the plant, AMARE [4]: 4 (4=61-80%) | percentage damage caused to the plant, ZEAMX (Zea mays (ZEAMX) [5]): 0 | percentage damage caused to the plant, AMAPA [6]: 4 (4=61-80%) | percentage damage caused to the plant, ZEAMX (Zea mays (ZEAMX) [7]): 0 | percentage damage caused to the plant, IPOHE [8]: 0 | percentage damage caused to the plant, AMAPA [9]: 4 (4=61-80%) | percentage damage caused to the plant, ECHCG [10]: 1 (1=1-20%) | percentage damage caused to the plant, SEFTA (Setaria faberi (SETFA) [11]): 0 | percentage damage caused to the plant, AMARE [12]: 4 (4=61-80%)

CC#Cc1c(-c2ccc(Cl)c(Cl)c2)c(C(=O)O)c(=O)n(-c2cc(F)cc(Cl)c2)c1C [Compound 40, 1-(3-chloro-5-fluoro-phenyl)-4-(3,4-dichlorophenyl)-6-methyl-2-oxo-5-prop-1-ynyl-pyridine-3-carboxylic acid]
percentage damage caused to the plant, ECHCG [1]: 0 | percentage damage caused to the plant, IPOHE [2]: 0 | percentage damage caused to the plant, SEFTA (Setaria faberi (SETFA) [3]): 0 | percentage damage caused to the plant, AMARE [4]: 0 | percentage damage caused to the plant, ZEAMX (Zea mays (ZEAMX) [5]): 0 | percentage damage caused to the plant, AMAPA [6]: 0 | percentage damage caused to the plant, ZEAMX (Zea mays (ZEAMX) [7]): 0 | percentage damage caused to the plant, IPOHE [8]: 0 | percentage damage caused to the plant, AMAPA [9]: 0 | percentage damage caused to the plant, ECHCG [10]: 0 | percentage damage caused to the plant, SEFTA (Setaria faberi (SETFA) [11]): 0 | percentage damage caused to the plant, AMARE [12]: 0

Cc1c(Cl)c(-c2ccc(Cl)c(Cl)c2)c(C(=O)O)c(=O)n1Cc1ccc(C(F)(F)F)cc1F [Compound 28, 5-chloro-4-(3,4-dichlorophenyl)-1-[[2-fluoro-4-(trifluoromethyl)phenyl]methyl]-6-methyl-2-oxo-pyridine-3-carboxylic acid]
percentage damage caused to the plant, ECHCG [1]: 0 | percentage damage caused to the plant, IPOHE [2]: 1 (1=1-20%) | percentage damage caused to the plant, SEFTA (Setaria faberi (SETFA) [3]): 1 (1=1-20%) | percentage damage caused to the plant, AMARE [4]: 3 (3=41-60%) | percentage damage caused to the plant, ZEAMX (Zea mays (ZEAMX) [5]): 1 (1=1-20%) | percentage damage caused to the plant, AMAPA [6]: 4 (4=61-80%) | percentage damage caused to the plant, ZEAMX (Zea mays (ZEAMX) [7]): 1 (1=1-20%) | percentage damage caused to the plant, IPOHE [8]: 1 (1=1-20%) | percentage damage caused to the plant, AMAPA [9]: 4 (4=61-80%) | percentage damage caused to the plant, ECHCG [10]: 1 (1=1-20%) | percentage damage caused to the plant, SEFTA (Setaria faberi (SETFA) [11]): 0 | percentage damage caused to the plant, AMARE [12]: 3 (3=41-60%)

C=Cc1c(-c2ccc(Cl)c(Cl)c2)c(C(=O)O)c(=O)n(-c2ccc(F)cc2F)c1C [Compound 38, 4-(3,4-dichlorophenyl)-1-(2,4-difluorophenyl)-6-methyl-2-oxo-5-vinyl-pyridine-3-carboxylic acid]
percentage damage caused to the plant, ECHCG [1]: 0 | percentage damage caused to the plant, IPOHE [2]: 2 (2=21-40%) | percentage damage caused to the plant, SEFTA (Setaria faberi (SETFA) [3]): 0 | percentage damage caused to the plant, AMARE [4]: 1 (1=1-20%) | percentage damage caused to the plant, ZEAMX (Zea mays (ZEAMX) [5]): 0 | percentage damage caused to the plant, AMAPA [6]: 1 (1=1-20%) | percentage damage caused to the plant, ZEAMX (Zea mays (ZEAMX) [7]): 0 | percentage damage caused to the plant, IPOHE [8]: 0 | percentage damage caused to the plant, AMAPA [9]: 1 (1=1-20%) | percentage damage caused to the plant, ECHCG [10]: 2 (2=21-40%) | percentage damage caused to the plant, SEFTA (Setaria faberi (SETFA) [11]): 0 | percentage damage caused to the plant, AMARE [12]: 1 (1=1-20%)

Cc1c(-c2ccc(Cl)c(Cl)c2)c(C(=O)O)c(=O)n(-c2ccc(Cl)cc2F)c1C [Compound 26, 1-(4-chloro-2-fluoro-phenyl)-4-(3,4-dichlorophenyl)-5,6-dimethyl-2-oxo-pyridine-3-carboxylic acid]
percentage damage caused to the plant, ECHCG [1]: 1 (1=1-20%) | percentage damage caused to the plant, IPOHE [2]: 0 | percentage damage caused to the plant, SEFTA (Setaria faberi (SETFA) [3]): 1 (1=1-20%) | percentage damage caused to the plant, AMARE [4]: 3 (3=41-60%) | percentage damage caused to the plant, ZEAMX (Zea mays (ZEAMX) [5]): 1 (1=1-20%) | percentage damage caused to the plant, AMAPA [6]: 3 (3=41-60%) | percentage damage caused to the plant, ZEAMX (Zea mays (ZEAMX) [7]): 1 (1=1-20%) | percentage damage caused to the plant, IPOHE [8]: 1 (1=1-20%) | percentage damage caused to the plant, AMAPA [9]: 3 (3=41-60%) | percentage damage caused to the plant, ECHCG [10]: 0 | percentage damage caused to the plant, SEFTA (Setaria faberi (SETFA) [11]): 1 (1=1-20%) | percentage damage caused to the plant, AMARE [12]: 3 (3=41-60%)

Cc1[nH]c(=O)c(C(=O)O)c(-c2ccc(Cl)c(Cl)c2)c1Cl [Compound 2, 5-chloro-4-(3,4-dichlorophenyl)-6-methyl-2-oxo-1H-pyridine-3-carboxylic acid]
percentage damage caused to the plant, ECHCG [1]: 0 | percentage damage caused to the plant, IPOHE [2]: 0 | percentage damage caused to the plant, SEFTA (Setaria faberi (SETFA) [3]): 0 | percentage damage caused to the plant, AMARE [4]: 0 | percentage damage caused to the plant, ZEAMX (Zea mays (ZEAMX) [5]): 0 | percentage damage caused to the plant, AMAPA [6]: 0 | percentage damage caused to the plant, ZEAMX (Zea mays (ZEAMX) [7]): 0 | percentage damage caused to the plant, IPOHE [8]: 0 | percentage damage caused to the plant, AMAPA [9]: 0 | percentage damage caused to the plant, ECHCG [10]: 0 | percentage damage caused to the plant, SEFTA (Setaria faberi (SETFA) [11]): 0 | percentage damage caused to the plant, AMARE [12]: 0

Cc1c(Cl)c(-c2ccc(Cl)c(Cl)c2)c(C(=O)O)c(=O)n1-c1ccc(F)cc1 [Compound 20, 5-chloro-4-(3,4-dichlorophenyl)-1-(4-fluorophenyl)-6-methyl-2-oxo-pyridine-3-carboxylic acid]
percentage damage caused to the plant, ECHCG [1]: 2 (2=21-40%) | percentage damage caused to the plant, IPOHE [2]: 2 (2=21-40%) | percentage damage caused to the plant, SEFTA (Setaria faberi (SETFA) [3]): 4 (4=61-80%) | percentage damage caused to the plant, AMARE [4]: 4 (4=61-80%) | percentage damage caused to the plant, ZEAMX (Zea mays (ZEAMX) [5]): 4 (4=61-80%) | percentage damage caused to the plant, AMAPA [6]: 5 (5=81-100%) | percentage damage caused to the plant, ZEAMX (Zea mays (ZEAMX) [7]): 0 | percentage damage caused to the plant, IPOHE [8]: 1 (1=1-20%) | percentage damage caused to the plant, AMAPA [9]: 5 (5=81-100%) | percentage damage caused to the plant, ECHCG [10]: 1 (1=1-20%) | percentage damage caused to the plant, SEFTA (Setaria faberi (SETFA) [11]): 2 (2=21-40%) | percentage damage caused to the plant, AMARE [12]: 4 (4=61-80%)

Cc1cc(-c2ccc(Cl)c(Cl)c2)c(C(=O)O)c(=O)n1-c1cccc(C(F)(F)F)c1F [Compound 17, 4-(3,4-dichlorophenyl)-1-[2-fluoro-3-(trifluoromethyl)phenyl]-6-methyl-2-oxo-pyridine-3-carboxylic acid]
percentage damage caused to the plant, ECHCG [1]: 0 | percentage damage caused to the plant, IPOHE [2]: 0 | percentage damage caused to the plant, SEFTA (Setaria faberi (SETFA) [3]): 1 (1=1-20%) | percentage damage caused to the plant, AMARE [4]: 1 (1=1-20%) | percentage damage caused to the plant, ZEAMX (Zea mays (ZEAMX) [5]): 0 | percentage damage caused to the plant, AMAPA [6]: 2 (2=21-40%) | percentage damage caused to the plant, ZEAMX (Zea mays (ZEAMX) [7]): 0 | percentage damage caused to the plant, IPOHE [8]: 0 | percentage damage caused to the plant, AMAPA [9]: 0 | percentage damage caused to the plant, ECHCG [10]: 0 | percentage damage caused to the plant, SEFTA (Setaria faberi (SETFA) [11]): 0 | percentage damage caused to the plant, AMARE [12]: 0

Cc1c(C2CC2)c(-c2ccc(Cl)c(Cl)c2)c(C(=O)O)c(=O)n1-c1ccc(F)cc1F [Compound 37, 5-cyclopropyl-4-(3,4-dichlorophenyl)-1-(2,4-difluorophenyl)-6-methyl-2-oxo-pyridine-3-carboxylic acid]
percentage damage caused to the plant, ECHCG [1]: 1 (1=1-20%) | percentage damage caused to the plant, IPOHE [2]: 2 (2=21-40%) | percentage damage caused to the plant, SEFTA (Setaria faberi (SETFA) [3]): 1 (1=1-20%) | percentage damage caused to the plant, AMARE [4]: 3 (3=41-60%) | percentage damage caused to the plant, ZEAMX (Zea mays (ZEAMX) [5]): 1 (1=1-20%) | percentage damage caused to the plant, AMAPA [6]: 4 (4=61-80%) | percentage damage caused to the plant, ZEAMX (Zea mays (ZEAMX) [7]): 1 (1=1-20%) | percentage damage caused to the plant, IPOHE [8]: 1 (1=1-20%) | percentage damage caused to the plant, AMAPA [9]: 4 (4=61-80%) | percentage damage caused to the plant, ECHCG [10]: 2 (2=21-40%) | percentage damage caused to the plant, SEFTA (Setaria faberi (SETFA) [11]): 1 (1=1-20%) | percentage damage caused to the plant, AMARE [12]: 3 (3=41-60%)
